Data reported in the kinase profiling compilation of Christmann-Franck et al. (2016).

What was measured:
Details in all cases: compound 10.0 µM
ADCK4 (human) = ADCK4 (human) (UniProt Q96D53)
AURKC (human) = AURKC (human) (UniProt Q9UQB9)
CDC42BPB (human) = CDC42BPB (human) (UniProt Q9Y5S2)
CDK4 CCND1 (human) = CDK4 CCND1 (human) (UniProt P11802+P24385)
CIT (human) = CIT (human) (UniProt O14578)
CSK (human) = CSK (human) (UniProt P41240)
CSNK2A2 (human) = CSNK2A2 (human) (UniProt P19784)
DCLK2 (human) = DCLK2 (human) (UniProt Q8N568)
DCLK3 (human) = DCLK3 (human) (UniProt Q9C098)
Sequence of DCLK3 (human) (Q9C098 whole entry, looked up): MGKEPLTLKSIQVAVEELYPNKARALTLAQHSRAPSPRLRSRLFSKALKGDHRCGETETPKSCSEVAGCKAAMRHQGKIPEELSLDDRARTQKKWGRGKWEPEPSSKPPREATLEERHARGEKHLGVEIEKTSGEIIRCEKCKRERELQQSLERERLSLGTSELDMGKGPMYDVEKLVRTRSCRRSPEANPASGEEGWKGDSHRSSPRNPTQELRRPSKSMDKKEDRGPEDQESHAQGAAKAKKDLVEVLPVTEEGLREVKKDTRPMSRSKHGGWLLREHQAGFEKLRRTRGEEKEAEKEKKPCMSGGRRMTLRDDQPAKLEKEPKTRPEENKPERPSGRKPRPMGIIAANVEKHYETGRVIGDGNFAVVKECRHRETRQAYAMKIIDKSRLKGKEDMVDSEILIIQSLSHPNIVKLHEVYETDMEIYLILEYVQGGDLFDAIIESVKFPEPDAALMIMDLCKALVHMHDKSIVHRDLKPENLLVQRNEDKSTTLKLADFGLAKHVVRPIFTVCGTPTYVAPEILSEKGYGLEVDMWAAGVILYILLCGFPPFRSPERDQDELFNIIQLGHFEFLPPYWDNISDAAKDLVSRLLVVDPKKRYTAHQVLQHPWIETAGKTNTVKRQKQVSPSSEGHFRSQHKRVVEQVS

DYRK2 (human) = DYRK2 (human) (UniProt Q92630)
EPHA3 (human) = EPHA3 (human) (UniProt P29320)
EPHA5 (human) = EPHA5 (human) (UniProt P54756)
FGFR2 (human) = FGFR2 (human) (UniProt P21802)
Sequence of FGFR2 (human) (P21802 whole entry, looked up): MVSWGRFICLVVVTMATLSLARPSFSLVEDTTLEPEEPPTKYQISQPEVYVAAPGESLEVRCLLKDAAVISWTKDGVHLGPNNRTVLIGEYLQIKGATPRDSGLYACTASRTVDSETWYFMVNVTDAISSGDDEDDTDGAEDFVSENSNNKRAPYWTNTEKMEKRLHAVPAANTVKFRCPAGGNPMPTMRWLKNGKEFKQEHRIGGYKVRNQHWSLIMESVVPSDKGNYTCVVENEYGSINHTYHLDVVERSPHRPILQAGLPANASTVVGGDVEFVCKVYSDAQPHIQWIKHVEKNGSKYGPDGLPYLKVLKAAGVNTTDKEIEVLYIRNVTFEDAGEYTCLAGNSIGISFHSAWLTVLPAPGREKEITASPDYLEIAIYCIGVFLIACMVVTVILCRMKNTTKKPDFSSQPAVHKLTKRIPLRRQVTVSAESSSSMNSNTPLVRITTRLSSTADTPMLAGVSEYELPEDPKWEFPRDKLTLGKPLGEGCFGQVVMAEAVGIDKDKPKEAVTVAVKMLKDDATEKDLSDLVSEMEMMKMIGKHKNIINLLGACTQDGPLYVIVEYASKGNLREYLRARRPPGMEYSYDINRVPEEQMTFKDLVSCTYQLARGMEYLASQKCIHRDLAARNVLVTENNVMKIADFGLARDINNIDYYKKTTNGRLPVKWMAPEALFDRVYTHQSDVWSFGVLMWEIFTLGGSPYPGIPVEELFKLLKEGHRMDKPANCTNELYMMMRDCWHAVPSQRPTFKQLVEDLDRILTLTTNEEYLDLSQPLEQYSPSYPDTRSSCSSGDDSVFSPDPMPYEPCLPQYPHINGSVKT

GSK3A (human) = GSK3A (human) (UniProt P49840)
HIPK1 (human) = HIPK1 (human) (UniProt Q86Z02)
HIPK4 (human) = HIPK4 (human) (UniProt Q8NE63)
ICK (human) = ICK (human) (UniProt Q9UPZ9)
Sequence of ICK (human) (Q9UPZ9 whole entry, looked up): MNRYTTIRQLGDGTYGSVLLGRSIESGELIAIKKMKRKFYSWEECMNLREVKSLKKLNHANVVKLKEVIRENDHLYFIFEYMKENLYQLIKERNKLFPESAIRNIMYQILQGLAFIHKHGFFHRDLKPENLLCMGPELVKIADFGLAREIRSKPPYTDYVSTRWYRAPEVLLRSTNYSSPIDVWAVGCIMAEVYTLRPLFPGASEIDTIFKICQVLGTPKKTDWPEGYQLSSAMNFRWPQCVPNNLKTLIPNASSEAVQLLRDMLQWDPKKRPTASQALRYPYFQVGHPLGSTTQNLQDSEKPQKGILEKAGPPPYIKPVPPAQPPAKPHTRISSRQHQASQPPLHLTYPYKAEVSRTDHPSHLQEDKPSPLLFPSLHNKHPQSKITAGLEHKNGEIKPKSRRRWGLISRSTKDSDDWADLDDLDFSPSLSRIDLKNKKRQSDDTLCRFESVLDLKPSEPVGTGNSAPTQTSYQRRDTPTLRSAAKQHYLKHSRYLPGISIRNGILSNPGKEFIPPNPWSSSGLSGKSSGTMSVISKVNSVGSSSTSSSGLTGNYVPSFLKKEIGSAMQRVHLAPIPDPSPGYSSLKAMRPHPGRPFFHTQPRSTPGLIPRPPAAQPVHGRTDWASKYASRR

IGF1R (human) = IGF1R (human) (UniProt P08069)
LATS2 (human) = LATS2 (human) (UniProt Q9NRM7)
MAP3K12 (human) = MAP3K12 (human) (UniProt Q12852)
MAP3K7 (human) = MAP3K7 (human) (UniProt O43318)
Sequence of MAP3K7 (human) (O43318 whole entry, looked up): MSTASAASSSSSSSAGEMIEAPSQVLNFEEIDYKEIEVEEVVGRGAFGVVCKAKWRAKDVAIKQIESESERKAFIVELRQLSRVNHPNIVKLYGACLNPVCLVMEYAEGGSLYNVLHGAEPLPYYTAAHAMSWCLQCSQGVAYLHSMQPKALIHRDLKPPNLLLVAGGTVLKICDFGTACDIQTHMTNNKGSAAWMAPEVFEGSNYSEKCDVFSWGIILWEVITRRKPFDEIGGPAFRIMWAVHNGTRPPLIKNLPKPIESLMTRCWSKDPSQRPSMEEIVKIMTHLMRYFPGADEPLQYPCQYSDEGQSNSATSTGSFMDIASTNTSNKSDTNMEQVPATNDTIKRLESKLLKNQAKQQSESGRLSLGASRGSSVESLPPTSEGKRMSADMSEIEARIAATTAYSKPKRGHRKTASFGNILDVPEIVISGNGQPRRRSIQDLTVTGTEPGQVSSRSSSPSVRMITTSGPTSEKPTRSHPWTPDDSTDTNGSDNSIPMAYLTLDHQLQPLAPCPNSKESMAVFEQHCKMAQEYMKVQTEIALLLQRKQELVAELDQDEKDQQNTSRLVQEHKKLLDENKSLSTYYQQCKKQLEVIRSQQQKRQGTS

MAPK11 (human) = MAPK11 (human) (UniProt Q15759)
NEK4 (human) = NEK4 (human) (UniProt P51957)
NEK6 (human) = NEK6 (human) (UniProt Q9HC98)
NEK7 (human) = NEK7 (human) (UniProt Q8TDX7)
NTRK1 (human) = NTRK1 (human) (UniProt P04629)
PAK1 (human) = PAK1 (human) (UniProt Q13153)
PDPK1 (human) = PDPK1 (human) (UniProt O15530)
PKMYT1 (human) = PKMYT1 (human) (UniProt Q99640)
Sequence of PKMYT1 (human) (Q99640 whole entry, looked up): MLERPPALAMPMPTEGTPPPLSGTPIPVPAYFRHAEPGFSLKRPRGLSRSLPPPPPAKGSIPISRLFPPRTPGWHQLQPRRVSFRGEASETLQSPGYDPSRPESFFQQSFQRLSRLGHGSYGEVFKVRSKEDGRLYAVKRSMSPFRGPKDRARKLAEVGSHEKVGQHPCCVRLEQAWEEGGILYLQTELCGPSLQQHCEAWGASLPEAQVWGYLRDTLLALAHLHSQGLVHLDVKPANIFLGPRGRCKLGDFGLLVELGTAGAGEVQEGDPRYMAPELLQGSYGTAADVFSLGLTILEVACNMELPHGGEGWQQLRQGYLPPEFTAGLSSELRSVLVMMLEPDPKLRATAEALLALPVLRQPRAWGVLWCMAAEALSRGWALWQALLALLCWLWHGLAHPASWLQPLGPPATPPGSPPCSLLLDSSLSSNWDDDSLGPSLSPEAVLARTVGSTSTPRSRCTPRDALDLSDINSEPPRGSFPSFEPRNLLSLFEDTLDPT

PRKAA2 (human) = PRKAA2 (human) (UniProt P54646)
PRKD1 (human) = PRKD1 (human) (UniProt Q15139)
[1] = tested on: RET (human), P07949 [V804M]
RPS6KA2 KD1 (human) = RPS6KA2 KD1 (human) (UniProt Q15349)
RPS6KA2 KD2 (human) = RPS6KA2 KD2 (human) (UniProt Q15349)
SGK110 (human) = SGK110 (human) (UniProt P0C264)
SGK3 (human) = SGK3 (human) (UniProt Q96BR1)
STK32A (human) = STK32A (human) (UniProt Q8WU08)
TAOK3 (human) = TAOK3 (human) (UniProt Q9H2K8)
TGFBR1 (human) = TGFBR1 (human) (UniProt P36897)
Sequence of TGFBR1 (human) (P36897 whole entry, looked up): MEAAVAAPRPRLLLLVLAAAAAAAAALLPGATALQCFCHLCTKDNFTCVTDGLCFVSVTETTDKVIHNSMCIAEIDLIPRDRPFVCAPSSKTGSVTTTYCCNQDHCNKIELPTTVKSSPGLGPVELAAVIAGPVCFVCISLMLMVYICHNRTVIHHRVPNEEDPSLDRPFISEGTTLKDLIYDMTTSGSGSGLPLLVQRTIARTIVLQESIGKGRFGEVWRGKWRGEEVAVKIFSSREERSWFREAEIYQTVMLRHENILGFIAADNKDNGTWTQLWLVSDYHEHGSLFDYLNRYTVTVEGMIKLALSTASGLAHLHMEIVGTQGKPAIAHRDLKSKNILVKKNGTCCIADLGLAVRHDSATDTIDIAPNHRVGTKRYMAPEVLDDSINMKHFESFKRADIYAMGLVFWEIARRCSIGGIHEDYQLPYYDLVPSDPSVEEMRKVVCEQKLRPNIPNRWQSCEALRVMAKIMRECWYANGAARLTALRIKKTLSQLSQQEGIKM

TGFBR2 (human) = TGFBR2 (human) (UniProt P37173)
Sequence of TGFBR2 (human) (P37173 whole entry, looked up): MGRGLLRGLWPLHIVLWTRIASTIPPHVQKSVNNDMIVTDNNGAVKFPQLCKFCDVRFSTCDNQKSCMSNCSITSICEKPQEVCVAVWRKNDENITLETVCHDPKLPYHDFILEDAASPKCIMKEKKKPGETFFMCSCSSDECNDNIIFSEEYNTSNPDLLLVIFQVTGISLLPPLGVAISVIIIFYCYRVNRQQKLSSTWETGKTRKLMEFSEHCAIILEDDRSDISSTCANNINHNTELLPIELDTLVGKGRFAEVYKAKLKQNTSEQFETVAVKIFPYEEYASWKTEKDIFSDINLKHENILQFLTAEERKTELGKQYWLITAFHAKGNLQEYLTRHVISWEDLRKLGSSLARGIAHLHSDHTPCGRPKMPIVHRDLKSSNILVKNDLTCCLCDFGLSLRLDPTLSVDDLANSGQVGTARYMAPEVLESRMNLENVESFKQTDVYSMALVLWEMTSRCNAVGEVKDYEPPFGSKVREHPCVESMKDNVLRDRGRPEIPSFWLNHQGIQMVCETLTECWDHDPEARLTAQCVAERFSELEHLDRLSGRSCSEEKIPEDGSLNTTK

TTK (human) = TTK (human) (UniProt P33981)

Sequence of ADCK4 (human) (Q96D53 whole entry, looked up): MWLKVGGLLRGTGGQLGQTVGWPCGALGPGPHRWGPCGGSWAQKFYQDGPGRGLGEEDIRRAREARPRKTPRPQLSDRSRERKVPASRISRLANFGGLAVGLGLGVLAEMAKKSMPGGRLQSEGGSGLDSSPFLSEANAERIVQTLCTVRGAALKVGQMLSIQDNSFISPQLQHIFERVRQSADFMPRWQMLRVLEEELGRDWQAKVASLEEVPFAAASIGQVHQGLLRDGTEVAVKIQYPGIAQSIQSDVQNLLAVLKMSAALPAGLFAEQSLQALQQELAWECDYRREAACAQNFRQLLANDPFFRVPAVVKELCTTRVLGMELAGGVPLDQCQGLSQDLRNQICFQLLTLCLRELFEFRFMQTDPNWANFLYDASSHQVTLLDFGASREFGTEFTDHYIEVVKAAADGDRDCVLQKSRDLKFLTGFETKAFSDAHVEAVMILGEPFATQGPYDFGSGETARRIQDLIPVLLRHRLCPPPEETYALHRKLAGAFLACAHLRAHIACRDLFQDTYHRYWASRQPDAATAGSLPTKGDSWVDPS

Work on `CNC(=O)c1cc(Oc2ccc(NC(=O)Nc3ccc(Cl)c(C(F)(F)F)c3)cc2)cc[n+]1[O-]` yielded a per cent of control (ADCK4 (human)) of 81%, a per cent of control (AURKC (human)) of 15% and a per cent of control (CDC42BPB (human)) of 97%. For the same compound, the per cent of control (CDK4 CCND1 (human)) was 74%, the per cent of control (CIT (human)) was 27% and the per cent of control (CSK (human)) was 1%. It also gave a per cent of control (CSNK2A2 (human)) of 70%, a per cent of control (DCLK2 (human)) of 87% and a per cent of control (DCLK3 (human)) of 100%. The per cent of control (DYRK2 (human)) was 26%, the per cent of control (EPHA3 (human)) was 4% and the per cent of control (EPHA5 (human)) was 15%. The per cent of control (FGFR2 (human)) was 8.9%, the per cent of control (GSK3A (human)) was 100% and the per cent of control (HIPK1 (human)) was 44%. For the same compound, the per cent of control (HIPK4 (human)) was 2.3%, the per cent of control (ICK (human)) was 100% and the per cent of control (IGF1R (human)) was 97%. The per cent of control (LATS2 (human)) was 100%, the per cent of control (MAP3K12 (human)) was 100% and the per cent of control (MAP3K7 (human)) was 2.9%. The per cent of control (MAPK11 (human)) was 0%, the per cent of control (NEK4 (human)) was 93% and the per cent of control (NEK6 (human)) was 100%. For the same compound, the per cent of control (NEK7 (human)) was 100%, the per cent of control (NTRK1 (human)) was 4% and the per cent of control (PAK1 (human)) was 100%. For the same compound, the per cent of control (PDPK1 (human)) was 94%, the per cent of control (PKMYT1 (human)) was 100% and the per cent of control (PRKAA2 (human)) was 49%. For the same compound, the per cent of control (PRKD1 (human)) was 63%, the per cent of control [1] was 0% and the per cent of control (RPS6KA2 KD1 (human)) was 43%. For the same compound, the per cent of control (RPS6KA2 KD2 (human)) was 42%, the per cent of control (SGK110 (human)) was 100% and the per cent of control (SGK3 (human)) was 42%. It also gave a per cent of control (STK32A (human)) of 92%, a per cent of control (TAOK3 (human)) of 0.4% and a per cent of control (TGFBR1 (human)) of 100%. The per cent of control (TGFBR2 (human)) was 3.1% and the per cent of control (TTK (human)) was 9%.
`CNC(=O)c1cc(Oc2ccc(NC(=O)Nc3ccc(Cl)c(C(F)(F)F)c3)cc2)ccn1` showed a per cent of control (ADCK4 (human)) of 90%, a per cent of control (AURKC (human)) of 12% and a per cent of control (CDC42BPB (human)) of 100%. For the same compound, the per cent of control (CDK4 CCND1 (human)) was 66%, the per cent of control (CIT (human)) was 20% and the per cent of control (CSK (human)) was 52%. For the same compound, the per cent of control (CSNK2A2 (human)) was 82%, the per cent of control (DCLK2 (human)) was 95% and the per cent of control (DCLK3 (human)) was 100%. The per cent of control (DYRK2 (human)) was 60%, the per cent of control (EPHA3 (human)) was 4% and the per cent of control (EPHA5 (human)) was 16%. For the same compound, the per cent of control (FGFR2 (human)) was 6.4%, the per cent of control (GSK3A (human)) was 100% and the per cent of control (HIPK1 (human)) was 17%. It also gave a per cent of control (HIPK4 (human)) of 4.5%, a per cent of control (ICK (human)) of 100% and a per cent of control (IGF1R (human)) of 100%. For the same compound, the per cent of control (LATS2 (human)) was 100%, the per cent of control (MAP3K12 (human)) was 100% and the per cent of control (MAP3K7 (human)) was 2.6%. For the same compound, the per cent of control (MAPK11 (human)) was 0.05%, the per cent of control (NEK4 (human)) was 100% and the per cent of control (NEK6 (human)) was 100%. For the same compound, the per cent of control (NEK7 (human)) was 100%, the per cent of control (NTRK1 (human)) was 22% and the per cent of control (PAK1 (human)) was 100%. It also gave a per cent of control (PDPK1 (human)) of 94%, a per cent of control (PKMYT1 (human)) of 93% and a per cent of control (PRKAA2 (human)) of 60%. The per cent of control (PRKD1 (human)) was 100%, the per cent of control [1] was 0% and the per cent of control (RPS6KA2 KD1 (human)) was 61%. For the same compound, the per cent of control (RPS6KA2 KD2 (human)) was 59%, the per cent of control (SGK110 (human)) was 91% and the per cent of control (SGK3 (human)) was 72%. It also gave a per cent of control (STK32A (human)) of 100%, a per cent of control (TAOK3 (human)) of 0.65% and a per cent of control (TGFBR1 (human)) of 100%. It also gave a per cent of control (TGFBR2 (human)) of 25% and a per cent of control (TTK (human)) of 15%.
